In article PMC3834762 (British Journal of Pharmacology, 2013):
Residue numbers refer to the chain shown, from its start.

Experiments:
Type in all cases: cell-based
[1] = biological target: T1, 5‐HT3A receptors (Homo sapiens, UniProt P46098); test: two‐electrode voltage clamp, wild type 5‐HT3A receptors in Xenopus oocytes
T1 sequence (P46098 24-478): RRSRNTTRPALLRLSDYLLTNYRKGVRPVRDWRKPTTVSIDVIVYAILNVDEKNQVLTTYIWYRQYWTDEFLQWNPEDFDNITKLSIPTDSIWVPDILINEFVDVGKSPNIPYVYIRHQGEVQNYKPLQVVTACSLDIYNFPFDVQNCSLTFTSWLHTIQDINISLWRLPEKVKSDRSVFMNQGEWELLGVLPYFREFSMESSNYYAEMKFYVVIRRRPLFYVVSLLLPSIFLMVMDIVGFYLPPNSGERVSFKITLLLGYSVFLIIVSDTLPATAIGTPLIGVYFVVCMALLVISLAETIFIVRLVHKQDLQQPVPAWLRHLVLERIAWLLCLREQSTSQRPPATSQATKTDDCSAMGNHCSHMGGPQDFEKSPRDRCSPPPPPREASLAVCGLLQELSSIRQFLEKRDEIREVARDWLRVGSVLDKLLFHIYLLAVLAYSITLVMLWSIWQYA

[2] = biological target: T2, 5‐HT3AT6'SB receptors (Homo sapiens, UniProt O95264+P46098, T279S); test: two‐electrode voltage clamp, 5‐HT3AT6'SB mutant receptors in Xenopus oocytes; conditions: maximal current amplitude for the test ligand compared to 5‐HT
T2 sequence (P46098 24-478 T279S): T1 sequence (P46098 24-478) with T256S
T2 sequence (O95264 22-441): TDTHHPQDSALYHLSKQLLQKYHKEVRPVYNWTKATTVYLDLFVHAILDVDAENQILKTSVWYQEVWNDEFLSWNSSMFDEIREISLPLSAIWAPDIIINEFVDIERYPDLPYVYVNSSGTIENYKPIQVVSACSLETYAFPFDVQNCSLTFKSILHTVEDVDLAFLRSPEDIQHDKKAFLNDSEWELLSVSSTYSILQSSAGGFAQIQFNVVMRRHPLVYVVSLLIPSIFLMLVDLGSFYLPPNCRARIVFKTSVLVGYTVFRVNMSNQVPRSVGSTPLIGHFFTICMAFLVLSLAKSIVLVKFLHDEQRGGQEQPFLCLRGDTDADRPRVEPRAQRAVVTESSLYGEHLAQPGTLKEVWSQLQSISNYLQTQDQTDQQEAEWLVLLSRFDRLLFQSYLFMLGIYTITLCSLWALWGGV

[3] = biological target: T3, 5‐HT3AT6'S receptors (Homo sapiens, UniProt P46098, T279S); test: two‐electrode voltage clamp, 5‐HT3AT6'S mutant receptors in Xenopus oocytes; conditions: maximal current amplitude for the test ligand compared to 5‐HT
T3 sequence (P46098 24-478 T279S): T1 sequence (P46098 24-478) with T256S

[4] = biological target: T4, 5‐HT3AB receptors (Homo sapiens, UniProt O95264+P46098); test: two‐electrode voltage clamp, wild type 5‐HT3AB receptors in Xenopus oocytes
T4 sequence (P46098 24-478): T1 sequence (P46098 24-478)
T4 sequence (O95264 22-441): T2 sequence (O95264 22-441)

With `c1ccc2nc(N3CCNCC3)ccc2c1` [Quipazine] the agonist response ([1]; 5‐HT3A) was “too small to accurately determine functional parameters”, the “long‐lived inhibition of subsequent agonist responses” value ([1]; wild type 5‐HT3A and 5‐HT3AB receptors) was > 20 min and the Rmax [2] was 1.2. The Rmax [3] was 0.9 and the agonist response [4] was “too small to accurately determine functional parameters”.
